pEC50: −log10 of the molar value.
Experiments:
[1] = system: p27 protein; assay: Quantification of p27 protein by ELISA (p27 protein-inducing activity, EC50); assay type: cell-based, human; conditions: NCI-H460 cells, 48 hours, p27 sandwich ELISA; Table 1-2
Protocol: The p27 protein-inducing activities of the compounds or salts listed in Tables 1-1, 1-2 and 2 below were measured as follows.
(§1) Preparation of Cell Lysate:
NCI-H460 human non-small cell lung cancer cells (ATCC HTB-177) were plated in 6-well plates at 2×10^5 cells/well and incubated overnight. Then, the test substance was added to the medium to a final concentration of 10000 nmol/L, 3000 nmol/L, 100 nmol/L, 30 nmol/L, 10 nmol/L, 3 nmol/L, 1 nmol/L, 0.3 nmol/L, 0.1 nmol/L, 0.03 nmol/L or 0.01 nmol/L and the cells were incubated at 37° C. in 5% CO2 for 48 hours. 150 μL of Cell Lysis Buffer (catalog no. 9803, Cell Signaling) which had been diluted to 1-fold concentration (1 mM PMSF was added immediately before use) was added, and the mixture was allowed to stand on ice for 10 minutes. The Cell Lysis Buffer in which cells were lysed was collected together with cells with a scraper and transferred to a new tube. It was centrifuged at 15000 rpm for 10 minutes at 4° C. and the supernatant was then transferred to a new tube.
Quantification by Sandwich ELISA:
Anti-p27 monoclonal antibody (catalog no. 71-9600, Zymed) was diluted to 5 μg/mL in 50 mM carbonate coating buffer (0.4 g/L NaCO3, 0.73 g/L NaHCO3 and 0.04 g/L NaN3 in distilled water), and it was then added at 50 μL/well and allowed to stand overnight at 4° C. to bind the antibody. After washing three times with PBS, 200 μL of blocking solution (0.2% I-Block in PBS) was added to each well. After 1 hour of incubation at room temperature, washing with PBS-T (0.05% Tween 20 in PBS) was performed three times. The sample and recombinant p27 protein standard were serially diluted in Cell Lysis Buffer (catalog no. 9803, Cell Signaling) which had been diluted to 1-fold concentration (1 mM PMSF was added immediately before use), and it was then added at 100 μL/well. After 1 hour of incubation at room temperature, washing with 200 μL of PBS-T was performed three times. HRP-labeled anti-p27 antibody (product no. 610243, BD Transdution Laboratories) was diluted 1:2500 (i.e. to 0.1 μg/mL) in 0.2% I-Block/0.05% PBS-T, and it was then added at 100 μL/well. After 1 hour of incubation at room temperature, washing with 200 μL of PBS-T was performed three times. Chromogenic substrate solution (TMB One Solution, catalog no. G7431, Promega) was added at 100 μL/well and allowed to develop a color reaction at room temperature. After stopping the reaction with 50 μL of 1N H2SO4, the absorbance at 450 nm was measured.
Calculation of EC50 Values:
A standard response curve was generated by plotting the amount of p27 protein against the concentration of the test substance. The basal level of response was defined as 0%, while the plateau level where the induction of p27 protein had been maximized was defined as 100%. Finally, the test substance concentration at which 50% induction was achieved was calculated, and it was defined as EC50.

[2] = system: p27 protein; assay: Detection of p27 protein by Western blotting in NCI-H460 cell lysate; assay type: cell-based, human; conditions: NCI-H460 cells; 0.3-30 μmol/L; KIP-10 48 hours, KIP-12 24 hours; FIGS. 1 and 3
Protocol: (§2) The p27 protein-inducing activities of KIP-10 (the compound represented by formula (C)) and KIP-12 (the compound represented by formula (D)) were measured as follows.
as §1
(§3) NCI-H460 human non-small cell lung cancer cells (ATCC HTB-177), DU-145 human prostate cancer cells (ATCC HTB-81) or HCT116 human colon cancer cells (ATCC CCL-247) were plated in 6-well plates at 2×10^5 cells/well and incubated overnight. Then, the test substance was added to the medium to a final concentration of 0.3 μmol/L, 1 μmol/L, 3 μmol/L, 10 μmol/L or 30 μmol/L or was not added and the cells were incubated at 37° C. in 5% CO2 for 48 or 24 hours. The cells were washed with cold PBS(−), which was then completely removed. 0.35 mL of Cell Lysis Buffer (catalog no. 9803, Cell Signaling) which had been diluted to 1-fold concentration was added, and the mixture was allowed to stand on ice for 10 minutes. The Cell Lysis Buffer in which cells were lysed was collected together with cells and subjected to sonication (speed 1, duty 80) for 10 seconds. […]
(§4) The total protein concentration in the supernatant was determined with a DC Protein Kit (catalog no. 500-0122, Bio-Rad). […] After washing three times with TBS-T, it was immersed in ECL kit reagent (catalog no. RPN2132, Amersham) for 1 minute and the band was detected with a chemiluminescence reader. […]

[3] = system: p27 protein; assay: Detection of p27 protein by Western blotting in DU-145 cell lysate; assay type: cell-based; conditions: DU-145 human prostate cancer cells; 0.3-30 μmol/L; 48 hours; FIG. 2
Protocol: as §2, §1, §3, §4

[4] = system: p27 protein; assay: Detection of p27 protein by Western blotting in HCT116 cell lysate; assay type: cell-based; conditions: HCT116 human colon cancer cells; 0.3-30 μmol/L; 24 hours; FIG. 4
Protocol: as §2, §1, §3, §4

SMILES	pEC50 [1]	p27 protein-inducing activity (Western blotting) [2]	p27 protein-inducing activity (Western blotting) [3]	p27 protein-inducing activity (Western blotting) [4]
Cc1c(Cc2ccccc2N)c(=O)oc2cc(OC(=O)N(C)C)c(Cl)cc12 [KIP-10, dimethylcarbamic acid 3-(2-aminobenzyl)-6-chloro-4-methyl-2-oxo-2H-1-benzopyran-7-yl ester]	5.22	sufficiently high p27 protein-inducing activity	sufficiently high p27 protein-inducing activity	
Cc1nn(Cc2ccc(C(=O)Nc3nc4ccccc4s3)cc2)c(C)c1[N+](=O)[O-] [KIP-12]		sufficiently high p27 protein-inducing activity		sufficiently high p27 protein-inducing activity
